From patent US20190359645A1, “2'3'-CYCLIC DINUCLEOTIDES COMPRISING CARBOCYCLIC NUCLEOTIDE” (Institute of Organic Chemistry and Biochemistry ASCR, V.V.I., priority 2018, published 2019) come the findings set out here.

The target of the experiment is WT STING (Homo sapiens, UniProt Q86WV6, H232R). In words: 293T wt STING reporter assay. It counts as cell-based. Set-up: host or cells: 293T (ATCC CRL-3216), stably transfected; also carries the 4xISRE firefly luciferase reporter. The conditions noted are these: 293T wtSTING-FL cells, no digitonin, 7 h incubation, ISRE firefly luciferase reporter. The text has this: Two complementary oligonucleotides of the sequence […] […] […] […] (SEQ ID NO: 1) and […] […] (SEQ ID NO:2) containing four interferon-sensitive response elements (ISRE) were synthesized by Sigma Aldrich (Czech Republic, Prague). The oligonucleotides were mixed in equal molar amounts, hybridized, and cleaved by restriction endonucleases HindIII (cat. #. R^0104S, NEB, Ipswich, USA) and BglII (cat. # R^0144S, NEB, Ipswich, USA). Ultimately, they were ligated into plasmid pGL4.27 (cat. # E6651, Promega, Madison, USA) linearized with the same enzymes. As a result, the sequence with four ISRE sites was placed upstream of the minimum promoter of firefly luciferase reporter gene.
Chain of WT STING (Q86WV6 whole entry H232R): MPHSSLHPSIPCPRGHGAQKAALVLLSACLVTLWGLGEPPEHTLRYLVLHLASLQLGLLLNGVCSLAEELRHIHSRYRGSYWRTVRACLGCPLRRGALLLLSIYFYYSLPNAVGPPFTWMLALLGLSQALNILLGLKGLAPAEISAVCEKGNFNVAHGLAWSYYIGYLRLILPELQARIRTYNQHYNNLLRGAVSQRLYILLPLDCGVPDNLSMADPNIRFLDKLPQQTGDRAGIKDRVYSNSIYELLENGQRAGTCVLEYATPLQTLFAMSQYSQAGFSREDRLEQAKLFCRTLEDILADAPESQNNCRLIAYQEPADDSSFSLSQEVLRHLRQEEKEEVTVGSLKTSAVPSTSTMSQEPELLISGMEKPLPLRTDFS
293T cells (cat. # CRL-3216, ATCC, Manassas, USA) were seeded a day before transfection at density 125,000 cells per cm^2 onto poly-D-lysine (cat. # P6407, Sigma Aldrich, Czech Republic) coated six well plates in antibiotic free DMEM with high glucose (cat. # D5796, Sigma Aldrich, Czech Republic) supplemented with 10% heat inactivated FBS (cat. # S1520, Biowest, Riverside, USA). […]
In general terms: Reporter assays use an easily measured gene product as a stand-in for the process of interest.

In general, EC50 refers to the concentration giving half of the maximal effect. Read a low EC50 as higher potency in that assay.

On to `Nc1ncnc2c1ncn2[C@@H]1O[C@@H]2COP(=O)(S)O[C@@H]3[C@H](F)[C@@H](COP(=O)(S)O[C@H]2[C@H]1F)C[C@H]3n1cnc2c(=O)[nH]cnc21` (single isomer, unassigned) [Compound 128a], for which the EC50 worked out at 11 µM. This lies in the double-digit micromolar range.

Turning to `Nc1ncnc2c1ncn2[C@@H]1O[C@@H]2COP(=O)(S)O[C@@H]3[C@H](F)[C@@H](COP(=O)(S)O[C@H]2[C@H]1F)C[C@H]3n1cnc2c(=O)[nH]cnc21` (single isomer, unassigned) [Compound 128d], the EC50 worked out at 0.5 µM.
